Columns and labels:
Experiment in all cases: Competitive isoTOP-ABPP in situ (fragment-treated cells)
Type in all cases: cell-based
[1] = target: cysteines in MDA-MB-231 and Ramos cells (Homo sapiens, UniProt Q9ULV4); conditions: 200 μM, insitu
[2] = target: cysteines in MDA-MB-231 and Ramos cells (Homo sapiens, UniProt Q13526); conditions: 200 μM, insitu
[3] = target: T1, cysteines in MDA-MB-231 and Ramos cells (Homo sapiens, UniProt Q9ULW0); conditions: 200 μM, insitu
T1 sequence (Q9ULW0 1-747): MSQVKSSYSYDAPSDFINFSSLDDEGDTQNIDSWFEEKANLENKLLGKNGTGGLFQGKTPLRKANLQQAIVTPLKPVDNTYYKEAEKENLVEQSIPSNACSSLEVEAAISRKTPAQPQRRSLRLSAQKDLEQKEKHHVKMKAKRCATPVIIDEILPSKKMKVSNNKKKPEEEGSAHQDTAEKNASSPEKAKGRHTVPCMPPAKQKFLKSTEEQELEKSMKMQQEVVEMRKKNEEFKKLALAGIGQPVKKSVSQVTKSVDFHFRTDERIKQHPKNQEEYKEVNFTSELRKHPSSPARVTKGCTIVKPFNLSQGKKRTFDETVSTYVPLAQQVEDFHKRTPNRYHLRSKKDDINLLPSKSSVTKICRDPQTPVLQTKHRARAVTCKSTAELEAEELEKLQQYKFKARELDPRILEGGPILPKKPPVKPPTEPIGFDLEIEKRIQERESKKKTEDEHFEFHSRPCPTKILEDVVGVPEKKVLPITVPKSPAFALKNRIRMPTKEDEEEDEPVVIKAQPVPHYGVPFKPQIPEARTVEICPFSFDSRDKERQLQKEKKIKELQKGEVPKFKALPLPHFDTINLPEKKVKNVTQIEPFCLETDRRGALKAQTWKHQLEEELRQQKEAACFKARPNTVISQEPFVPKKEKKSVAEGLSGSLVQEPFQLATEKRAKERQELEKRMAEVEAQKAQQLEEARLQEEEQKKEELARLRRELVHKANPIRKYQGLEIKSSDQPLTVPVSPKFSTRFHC

[4] = target: cysteines in MDA-MB-231 and Ramos cells (Homo sapiens, UniProt Q16831); conditions: 200 μM, insitu, 231
[5] = target: T2, cysteines in MDA-MB-231 and Ramos cells (Homo sapiens, UniProt P30101); conditions: 200 μM, insitu
T2 sequence (P30101 25-505): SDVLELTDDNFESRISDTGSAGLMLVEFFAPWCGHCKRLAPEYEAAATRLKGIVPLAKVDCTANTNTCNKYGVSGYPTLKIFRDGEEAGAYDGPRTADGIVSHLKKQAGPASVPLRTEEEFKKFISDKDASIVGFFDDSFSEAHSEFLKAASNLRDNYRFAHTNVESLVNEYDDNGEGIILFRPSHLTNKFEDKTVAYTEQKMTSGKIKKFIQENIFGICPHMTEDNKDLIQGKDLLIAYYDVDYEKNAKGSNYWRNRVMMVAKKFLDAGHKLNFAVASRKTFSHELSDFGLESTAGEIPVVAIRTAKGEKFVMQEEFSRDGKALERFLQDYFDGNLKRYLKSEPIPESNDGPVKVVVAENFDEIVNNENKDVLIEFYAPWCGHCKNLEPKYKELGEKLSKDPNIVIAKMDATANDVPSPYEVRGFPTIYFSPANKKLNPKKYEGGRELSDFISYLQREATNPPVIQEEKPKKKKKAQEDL

[6] = target: T3, cysteines in MDA-MB-231 and Ramos cells (Homo sapiens, UniProt Q9Y3D0); conditions: 200 μM, insitu
T3 sequence (Q9Y3D0 1-163): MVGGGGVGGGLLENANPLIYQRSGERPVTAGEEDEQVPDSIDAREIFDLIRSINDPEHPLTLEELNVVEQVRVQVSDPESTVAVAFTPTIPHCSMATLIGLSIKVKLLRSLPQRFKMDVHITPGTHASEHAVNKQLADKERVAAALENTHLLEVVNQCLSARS

[7] = target: T4, cysteines in MDA-MB-231 and Ramos cells (Homo sapiens, UniProt Q15233); conditions: 200 μM, insitu
T4 sequence (Q15233 1-471): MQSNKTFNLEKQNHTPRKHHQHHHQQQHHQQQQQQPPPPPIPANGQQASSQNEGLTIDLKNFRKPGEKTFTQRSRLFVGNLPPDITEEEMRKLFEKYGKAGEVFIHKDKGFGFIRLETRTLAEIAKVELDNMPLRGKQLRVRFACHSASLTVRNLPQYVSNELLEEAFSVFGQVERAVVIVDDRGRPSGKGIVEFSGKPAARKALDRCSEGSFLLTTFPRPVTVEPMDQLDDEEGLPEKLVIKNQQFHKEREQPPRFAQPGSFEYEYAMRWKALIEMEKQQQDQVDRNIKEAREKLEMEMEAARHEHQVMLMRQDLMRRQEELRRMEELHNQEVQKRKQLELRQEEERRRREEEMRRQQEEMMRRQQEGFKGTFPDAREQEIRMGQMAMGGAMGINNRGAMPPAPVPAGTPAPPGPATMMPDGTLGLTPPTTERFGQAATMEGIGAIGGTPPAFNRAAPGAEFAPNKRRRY

[8] = target: T5, cysteines in MDA-MB-231 and Ramos cells (Homo sapiens, UniProt P10599); conditions: 200 μM, insitu
T5 sequence (P10599 1-105): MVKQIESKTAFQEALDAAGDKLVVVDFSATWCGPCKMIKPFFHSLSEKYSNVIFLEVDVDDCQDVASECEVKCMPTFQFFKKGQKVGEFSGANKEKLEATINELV

[9] = target: cysteines in MDA-MB-231 and Ramos cells (Homo sapiens, UniProt P62888); conditions: 200 μM, insitu
[10] = target: T6, cysteines in MDA-MB-231 and Ramos cells (Homo sapiens, UniProt Q9Y277); conditions: 200 μM, insitu
T6 sequence (Q9Y277 1-283): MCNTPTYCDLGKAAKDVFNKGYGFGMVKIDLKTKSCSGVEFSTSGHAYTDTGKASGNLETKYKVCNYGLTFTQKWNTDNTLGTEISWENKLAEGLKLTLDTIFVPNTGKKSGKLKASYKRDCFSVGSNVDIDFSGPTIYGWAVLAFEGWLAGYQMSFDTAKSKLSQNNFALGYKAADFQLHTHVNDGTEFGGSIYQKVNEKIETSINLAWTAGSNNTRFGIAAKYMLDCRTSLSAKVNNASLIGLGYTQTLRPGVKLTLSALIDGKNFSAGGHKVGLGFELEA

[11] = target: cysteines in MDA-MB-231 and Ramos cells (Homo sapiens, UniProt O60610); conditions: 200 μM, insitu
Sequence of cysteines in MDA-MB-231 and Ramos cells (Homo sapiens, UniProt O60610) (O60610 whole entry): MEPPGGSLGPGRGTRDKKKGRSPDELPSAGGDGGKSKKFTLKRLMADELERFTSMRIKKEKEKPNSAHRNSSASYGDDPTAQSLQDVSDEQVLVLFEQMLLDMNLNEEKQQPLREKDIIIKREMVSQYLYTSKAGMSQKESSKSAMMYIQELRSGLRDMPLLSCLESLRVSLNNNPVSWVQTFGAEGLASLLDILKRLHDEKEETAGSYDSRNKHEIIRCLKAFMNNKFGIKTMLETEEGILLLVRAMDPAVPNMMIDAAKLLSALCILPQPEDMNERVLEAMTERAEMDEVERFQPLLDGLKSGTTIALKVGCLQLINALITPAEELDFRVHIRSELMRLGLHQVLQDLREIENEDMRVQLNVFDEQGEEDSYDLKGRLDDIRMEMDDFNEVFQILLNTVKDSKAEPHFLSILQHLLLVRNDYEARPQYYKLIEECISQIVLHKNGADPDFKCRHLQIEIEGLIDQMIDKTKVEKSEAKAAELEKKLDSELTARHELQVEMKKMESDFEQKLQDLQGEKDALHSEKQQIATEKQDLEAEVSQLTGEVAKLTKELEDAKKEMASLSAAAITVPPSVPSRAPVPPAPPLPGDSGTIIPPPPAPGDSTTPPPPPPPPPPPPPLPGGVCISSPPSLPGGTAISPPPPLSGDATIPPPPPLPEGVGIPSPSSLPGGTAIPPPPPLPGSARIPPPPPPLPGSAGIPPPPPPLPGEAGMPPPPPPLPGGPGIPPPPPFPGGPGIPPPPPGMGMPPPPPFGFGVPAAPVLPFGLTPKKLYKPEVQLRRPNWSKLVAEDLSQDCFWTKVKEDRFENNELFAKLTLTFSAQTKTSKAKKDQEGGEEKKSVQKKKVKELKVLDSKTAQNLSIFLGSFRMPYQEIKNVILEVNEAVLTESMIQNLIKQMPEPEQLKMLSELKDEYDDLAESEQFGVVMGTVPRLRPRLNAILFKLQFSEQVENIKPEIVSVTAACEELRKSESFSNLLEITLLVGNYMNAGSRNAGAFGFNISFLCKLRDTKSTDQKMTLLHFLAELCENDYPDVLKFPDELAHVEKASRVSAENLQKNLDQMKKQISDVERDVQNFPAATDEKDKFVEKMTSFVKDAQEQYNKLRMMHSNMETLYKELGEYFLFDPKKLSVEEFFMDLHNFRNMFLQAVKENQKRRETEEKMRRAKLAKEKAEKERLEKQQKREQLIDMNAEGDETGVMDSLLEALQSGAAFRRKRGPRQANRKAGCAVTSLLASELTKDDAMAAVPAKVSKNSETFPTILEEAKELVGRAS

Sequence of cysteines in MDA-MB-231 and Ramos cells (Homo sapiens, UniProt Q16831) (Q16831 whole entry): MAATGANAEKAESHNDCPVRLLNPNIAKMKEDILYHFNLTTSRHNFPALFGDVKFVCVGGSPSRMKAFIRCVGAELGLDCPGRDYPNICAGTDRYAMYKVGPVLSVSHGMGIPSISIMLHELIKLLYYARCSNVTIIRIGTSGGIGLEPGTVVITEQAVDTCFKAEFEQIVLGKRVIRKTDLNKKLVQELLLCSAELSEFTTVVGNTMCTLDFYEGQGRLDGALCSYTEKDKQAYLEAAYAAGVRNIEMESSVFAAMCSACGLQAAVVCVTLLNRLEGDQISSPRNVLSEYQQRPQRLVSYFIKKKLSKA
Sequence of cysteines in MDA-MB-231 and Ramos cells (Homo sapiens, UniProt Q13526) (Q13526 whole entry): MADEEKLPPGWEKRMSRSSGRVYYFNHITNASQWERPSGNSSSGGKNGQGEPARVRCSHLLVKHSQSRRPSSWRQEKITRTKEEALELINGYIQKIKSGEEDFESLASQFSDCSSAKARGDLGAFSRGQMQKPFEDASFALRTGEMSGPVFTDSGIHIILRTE
Sequence of cysteines in MDA-MB-231 and Ramos cells (Homo sapiens, UniProt Q9ULV4) (Q9ULV4 whole entry): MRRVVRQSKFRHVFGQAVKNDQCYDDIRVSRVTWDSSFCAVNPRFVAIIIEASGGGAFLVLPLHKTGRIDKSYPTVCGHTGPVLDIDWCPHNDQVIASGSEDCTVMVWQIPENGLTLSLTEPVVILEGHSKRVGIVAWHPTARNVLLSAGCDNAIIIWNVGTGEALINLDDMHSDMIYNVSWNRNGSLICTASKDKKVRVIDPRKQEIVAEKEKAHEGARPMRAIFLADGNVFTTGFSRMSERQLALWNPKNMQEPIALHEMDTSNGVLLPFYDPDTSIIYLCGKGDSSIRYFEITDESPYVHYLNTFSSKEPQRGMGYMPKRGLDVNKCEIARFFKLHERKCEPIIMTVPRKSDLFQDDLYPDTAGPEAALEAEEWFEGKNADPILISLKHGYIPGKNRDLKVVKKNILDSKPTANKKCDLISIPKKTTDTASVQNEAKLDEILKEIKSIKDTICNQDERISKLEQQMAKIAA

Row | SMILES | isoTOP-ABPP ratio Q9ULV4_C420 [1]; 231 | isoTOP-ABPP ratio Q13526_C113 [2]; 231 | isoTOP-ABPP ratio Q9ULW0_C536 [3]; 231 | isoTOP-ABPP ratio Q16831_C162 [4] | isoTOP-ABPP ratio P30101_C57 [5]; 231 | isoTOP-ABPP ratio Q9Y3D0_C93 [6]; 231 | isoTOP-ABPP ratio Q15233_C145 [7]; 231 | isoTOP-ABPP ratio P10599_C32 [8]; 231 | isoTOP-ABPP ratio P62888_C92 [9]; 231 | isoTOP-ABPP ratio Q9Y277_C65 [10]; 231 | isoTOP-ABPP ratio P30101_C406 [5]; 231 | isoTOP-ABPP ratio O60610_C1227 [11]; 231 | further results
1 | COc1ccccc1OCCNC(=O)CCl [compound 28] | 0.7 | 0.7 | 1.0 | 0.7 | 1.6 | 0.8 | 1.1 | 20.0 | 0.9 | 1.2 | – | – | –
2 | Cc1ccc(C=C(C#N)C(=O)NCCN2CCOCC2)cc1 [compound 41] | 0.8 | 0.6 | 1.2 | 0.8 | 1.3 | 0.6 | 1.1 | 0.4 | 0.8 | 1.4 | 1.0 | 0.6 | –
3 | O=C(CCl)NC(=O)NC12CC3CC(CC(C3)C1)C2 [compound 12] | 2.2 | 0.6 | 20.0 | 0.9 | 20.0 | – | 2.4 | 20.0 | 1.1 | 3.9 | 20.0 | 0.8 | –
4 | O=C(CCl)N1CCC(Cc2ccccc2)CC1 [compound 9] | – | – | – | – | – | – | – | – | – | – | – | – | isoTOP-ABPP reactivity Q9ULV4_C420 CORO1C [1]; 231: 2.0; isoTOP-ABPP reactivity Q13526_C113 PIN1 [2]; 231: 3.3; isoTOP-ABPP reactivity Q9ULW0_C536 TPX2 [3]; 231: 5.7; isoTOP-ABPP reactivity Q16831_C162 UPP1 [4]: 7.7; isoTOP-ABPP reactivity P30101_C406 PDIA3 [5]; 231: 1.4; isoTOP-ABPP reactivity O60610_C1227 DIAPH1 [11]; 231: 1.5; isoTOP-ABPP reactivity Q15233_C145 NONO [7]; 231: 1.4; isoTOP-ABPP reactivity P10599_C32 TXN [8]; 231: 20.0; isoTOP-ABPP reactivity P62888_C92 RPL30 [9]; 231: 1.3
5 | O=C(CCl)NC12CC3CC(CC(C3)C1)C2 [compound 21] | 1.3 | 0.7 | 0.9 | 1.6 | 1.0 | 0.5 | – | 3.9 | 0.9 | 2.9 | – | 20.0 | –
6 | O=C(CCl)Nc1cccc2ncccc12 [compound 51] | 1.1 | 1.4 | 1.4 | 1.1 | – | 20.0 | 1.6 | 13.9 | 0.9 | – | 6.0 | – | –
7 | CC1CCc2ccccc2N1C(=O)CCl (stereo not drawn) [compound 45] | 3.2 | 10.0 | 20.0 | 1.3 | 2.6 | 20.0 | 3.7 | 5.7 | 2.2 | – | 2.6 | 3.0 | –
8 | COc1ccc2c(c1)CCCN2C(=O)CCl [compound 2] | – | – | – | – | – | – | – | – | – | – | – | – | isoTOP-ABPP reactivity Q9ULV4_C420 CORO1C [1]; 231: 3.0; isoTOP-ABPP reactivity Q13526_C113 PIN1 [2]; 231: 20.0; isoTOP-ABPP reactivity Q9ULW0_C536 TPX2 [3]; 231: 20.0; isoTOP-ABPP reactivity Q16831_C162 UPP1 [4]: 1.2; isoTOP-ABPP reactivity P30101_057 PDIA3 [5]; 231: 2.2; isoTOP-ABPP reactivity P30101_C406 PDIA3 [5]; 231: 3.2; isoTOP-ABPP reactivity O60610_C1227 DIAPH1 [11]; 231: 2.2; isoTOP-ABPP reactivity Q9Y3D0_C93 FAM96B [6]; 231: 20.0; isoTOP-ABPP reactivity P10599_C32 TXN [8]; 231: 7.9; isoTOP-ABPP reactivity P62888_C92 RPL30 [9]; 231: 1.0; isoTOP-ABPP reactivity Q9Y277_C65 VDAC3 [10]; 231: 3.3
9 | COc1cc2c(cc1OC)CN(C(=O)CCl)CC2 [compound 8] | – | – | – | – | – | – | – | – | – | – | – | – | isoTOP-ABPP reactivity Q9ULV4_C420 CORO1C [1]; 231: 4.6; isoTOP-ABPP reactivity Q13526_C113 PIN1 [2]; 231: 2.6; isoTOP-ABPP reactivity Q9ULW0_C536 TPX2 [3]; 231: 20.0; isoTOP-ABPP reactivity Q16831_C162 UPP1 [4]: 20.0; isoTOP-ABPP reactivity P30101_057 PDIA3 [5]; 231: 20.0; isoTOP-ABPP reactivity P30101_C406 PDIA3 [5]; 231: 20.0; isoTOP-ABPP reactivity Q15233_C145 NONO [7]; 231: 12.0; isoTOP-ABPP reactivity P10599_C32 TXN [8]; 231: 5.9; isoTOP-ABPP reactivity P62888_C92 RPL30 [9]; 231: 1.5
10 | O=C(CCl)N1CCN(CC(=O)N2CCOCC2)CC1 [compound 29] | – | – | – | – | – | – | – | – | – | – | – | – | isoTOP-ABPP ratio Q13526_C113 ([2]; ramos): 1.0; isoTOP-ABPP ratio Q9ULW0_C536 ([3]; ramos): 1.8; isoTOP-ABPP ratio P30101_C57 ([5]; ramos): 1.2; isoTOP-ABPP ratio P30101_C406 ([5]; ramos): 1.5; isoTOP-ABPP ratio O60610_C1227 ([11]; ramos): 1.6; isoTOP-ABPP ratio Q9Y3D0_C93 ([6]; ramos): 1.0; isoTOP-ABPP ratio P10599_C32 ([8]; ramos): 1.9; isoTOP-ABPP ratio P62888_C92 ([9]; ramos): 2.0
11 | C=CC(=O)N(Cc1cccnc1)c1cc(C(F)(F)F)cc(C(F)(F)F)c1 [compound 31] | 0.8 | 0.6 | – | – | 0.9 | – | 0.7 | 1.2 | – | – | 0.8 | 0.6 | isoTOP-ABPP ratio Q9ULV4_C420 ([1]; ramos): 1.1; isoTOP-ABPP ratio Q13526_C113 ([2]; ramos): 1.1; isoTOP-ABPP ratio P30101_C406 ([5]; ramos): 1.1; isoTOP-ABPP ratio O60610_C1227 ([11]; ramos): 1.2; isoTOP-ABPP ratio Q15233_C145 ([7]; ramos): 0.8; isoTOP-ABPP ratio P10599_C32 ([8]; ramos): 1.7; isoTOP-ABPP ratio Q9Y277_C65 ([10]; ramos): 1.0

From patent US10670605B2, “Cysteine reactive probes and uses thereof” (The Scripps Research Institute, priority 2015, dated 2020)
